Reference: patent US20240167005A1, “MODIFIED SHIGELLA APYRASE AND USES THEREOF” (APIRAYS BIOSCIENCES AB, priority 2021, published 2024)

How the values were obtained:
[1] = system: EIEC apyrase variant H116L; experiment: Affinity of ATP to EIEC H116L (Table 6); format: biochemical
Description: (§1) Respective colorimetric/fluorescence assays (mentioned above).

[2] = target: Shigella flexneri apyrase (ApiOne, SEQ ID NO: 1) Double mutant L66V/G63R (Shigella flexneri, UniProt Q59909, G63R/L66V); conditions: read-out: Affinity (Km), ATP, 50 mM Tris-HCl pH 7.5, 37° C., 20 min, 500 ng enzyme
Method: To this 200 μL of Ammonium Molybdate Ferrous Ammonium Sulphate (AMFAS) reagent was added. AMFAS reagent was prepared by mixing equal volumes of reagent A and reagent B, where reagent A comprises of 5% (w/v) ammonium molybdate in 5 N H2SO4 and reagent B contains 1% (w/v) ferrous ammonium sulphate in double-distilled water. The amount of inorganic phosphate formed (product of ATP/ADP hydrolysis) is colorimetrically measured at 630 nm using multi-mode spectrophotometer (Biotek instruments).
The kinetic curves were plotted and the Michaelis Menten constant (Km) was calculated using GraphPad Prism 5.0 software.

[3] = target: Shigella flexneri apyrase (ApiOne, SEQ ID NO: 1) ApiTwo mutant L66V (Shigella flexneri, UniProt Q59909, L66V); experiment: Affinity towards ATP, L66V; format: biochemical; conditions: 50 mM Tris-HCl pH 7.5, 37° C., 20 min, 500 ng enzyme
Description: However, not all reactions successfully generated PCR products by agarose gel electrophoresis. The successful mutations were transformed into the expression host and proteins were expressed and purified to homogeneity by affinity chromatography.
Other substrates like 2-Glycerophosphate, Pyridoxal phosphate and phenyl phosphate were not hydrolysed by the mutants (Table 2 and FIG. 8A-B).
as §1

[4] = target: T1, wild-type Shigella flexneri apyrase, SEQ ID NO: 1 (Shigella flexneri, UniProt Q59909); experiment: ATP hydrolysis, Km for ATP (Example 2), wild type; format: biochemical; conditions: 50 mM Tris, pH 7.5, 37° C., 30 min, 700 ng enzyme
T1 sequence (Q59909 26-246): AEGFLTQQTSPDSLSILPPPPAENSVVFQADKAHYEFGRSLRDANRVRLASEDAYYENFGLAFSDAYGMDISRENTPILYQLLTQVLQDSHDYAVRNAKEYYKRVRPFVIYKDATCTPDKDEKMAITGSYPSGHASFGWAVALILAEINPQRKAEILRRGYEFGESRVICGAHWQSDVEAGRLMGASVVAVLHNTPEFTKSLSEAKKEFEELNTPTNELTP
Method: (§2) A titrated series of ATP solutions from 100 mM to 0.01 mM in 50 mM Tris, pH 7.5 were prepared and incubated with 700 ng of Apyrase (mutant prepared in Example 1 and wild-type Shigella flexneri apyrase as control) for 30 minutes at 37° C. (100 μL reaction). After the incubation, 100 μL AMFAS reagent was added and OD was taken at 630 nm using multimode reader (Biotek instruments). The color formation is proportional to the amount of ATP degraded (dephosphorylated to ADP or AMP). […] Specific activity at 10 mM ATP was determined as 6.3 μmoles/min/mg for the mutant apyrase.

[5] = target: Shigella flexneri apyrase, mutant apyrase of Example 1, SEQ ID NO: 3 (S50N, F54V, G63R, L66V, N70Q, E77V, A791, D90T, S97T, L108M, Q113N, V120R, K124R, Y127Q, P (Shigella flexneri, UniProt Q59909, A167G/A79I/D90T/E243D/E77V/F162N/F223W/F234Y/F53V/G185A/G206R/G63R/I151L/K124R/K178R/L108M/L182F/L227S/L66V/N174Q/N219K/N70Q/P143R/Q113N/S50N/S97T/T239Q/V120R/V213A/W199Y/Y127Q)); experiment: ATP hydrolysis, Km for ATP (Example 2), mutant; format: biochemical; conditions: mutant of Example 1; 50 mM Tris, pH 7.5, 37° C., 30 min, 700 ng enzyme
Method: In order to improve the activity of apyrase and its tolerance to high salt conditions, the inventors mutated the apyrase gene randomly using an error prone PCR method starting from the wild-type Shigella flexneri apyrase DNA sequence (SEQ ID NO: 4) as template. The method incorporates repeated copying of the template at high MgCl2 concentration (5 mM) with Taq polymerase. After every fourth cycle, one fifth of the reaction mixture was transferred to fresh PCR tube and the same process was repeated 22 times to obtain a product that will have randomly mutated nucleotides which can be identified by sequencing. The mutated gene was cloned in pET21a vector. The mutated DNA sequence obtained is presented as SEQ ID NO: 2, containing a total of 31 mutations leading to amino-acid changes (see SEQ ID NO:3 compared to the wild-type amino-acid sequence of SEQ ID NO: 1).
as §2, with “instruments).” for “instruments). The color formation is proportional to the amount of ATP degraded (dephosphorylated to ADP or AMP).”

How did the Km [1] turn out when Nc1ncnc2c1ncn2[C@@H]1O[C@H](COP(=O)(O)OP(=O)(O)OP(=O)(O)O)[C@@H](O)[C@H]1O [ATP, Adenosine triphosphate] was run?
Its Km is 24 µM.

And the Km [2]?
Its Km is 20.7 µM.

And the Km [3]?
The Km was 18.5 µM.

What about the Km [4] of the same compound?
The Km was 3.3 mM.

What about the Km [5] of the same compound?
Its Km is 3.6 mM.
